According to doi:10.1101/2023.03.24.534094v2 (biorxiv, 2023):
Where two headings read alike, the source gives them in different places. One block for each compound: values may come before it.

Key:
Experiment in all cases: biochemical
[1] = molecular target: T1, NEK1 (Homo sapiens, UniProt Q96PY6)
T1 sequence (Q96PY6 1-1258): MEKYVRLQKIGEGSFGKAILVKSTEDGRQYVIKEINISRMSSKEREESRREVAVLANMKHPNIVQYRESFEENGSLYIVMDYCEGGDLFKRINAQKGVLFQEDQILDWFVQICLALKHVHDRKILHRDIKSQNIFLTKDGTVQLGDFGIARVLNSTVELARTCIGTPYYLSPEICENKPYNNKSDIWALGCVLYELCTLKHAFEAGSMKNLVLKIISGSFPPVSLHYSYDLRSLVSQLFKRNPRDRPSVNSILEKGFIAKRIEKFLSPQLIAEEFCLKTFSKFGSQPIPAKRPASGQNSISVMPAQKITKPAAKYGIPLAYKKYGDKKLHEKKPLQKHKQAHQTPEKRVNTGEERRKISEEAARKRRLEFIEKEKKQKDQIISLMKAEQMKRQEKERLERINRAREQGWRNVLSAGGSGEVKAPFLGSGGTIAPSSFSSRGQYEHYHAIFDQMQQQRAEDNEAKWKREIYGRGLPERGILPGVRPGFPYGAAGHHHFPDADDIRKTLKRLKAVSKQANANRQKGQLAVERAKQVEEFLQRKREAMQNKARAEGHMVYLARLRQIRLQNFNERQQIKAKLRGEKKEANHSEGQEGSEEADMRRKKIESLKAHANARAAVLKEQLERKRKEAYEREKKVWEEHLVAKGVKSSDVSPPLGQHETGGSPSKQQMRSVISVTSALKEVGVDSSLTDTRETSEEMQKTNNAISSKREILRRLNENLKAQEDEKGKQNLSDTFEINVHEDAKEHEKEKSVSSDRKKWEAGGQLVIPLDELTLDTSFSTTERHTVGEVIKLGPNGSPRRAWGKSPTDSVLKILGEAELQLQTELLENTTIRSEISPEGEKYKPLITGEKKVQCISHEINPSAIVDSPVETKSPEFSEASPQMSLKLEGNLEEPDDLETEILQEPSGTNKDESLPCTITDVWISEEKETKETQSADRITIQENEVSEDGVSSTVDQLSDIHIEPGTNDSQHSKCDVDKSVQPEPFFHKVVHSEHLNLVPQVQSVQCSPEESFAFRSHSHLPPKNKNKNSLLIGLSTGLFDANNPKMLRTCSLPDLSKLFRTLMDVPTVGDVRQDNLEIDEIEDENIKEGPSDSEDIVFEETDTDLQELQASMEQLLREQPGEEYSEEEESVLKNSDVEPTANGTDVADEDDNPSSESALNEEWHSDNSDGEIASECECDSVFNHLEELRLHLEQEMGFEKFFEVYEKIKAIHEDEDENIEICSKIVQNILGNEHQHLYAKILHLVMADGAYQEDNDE

[2] = molecular target: PCTAIRE1 (Homo sapiens, UniProt Q00536)
[3] = molecular target: CK2a1 (Homo sapiens, UniProt P68400)
[4] = molecular target: T2, BMX (Homo sapiens, UniProt P51813)
T2 sequence (P51813 1-675): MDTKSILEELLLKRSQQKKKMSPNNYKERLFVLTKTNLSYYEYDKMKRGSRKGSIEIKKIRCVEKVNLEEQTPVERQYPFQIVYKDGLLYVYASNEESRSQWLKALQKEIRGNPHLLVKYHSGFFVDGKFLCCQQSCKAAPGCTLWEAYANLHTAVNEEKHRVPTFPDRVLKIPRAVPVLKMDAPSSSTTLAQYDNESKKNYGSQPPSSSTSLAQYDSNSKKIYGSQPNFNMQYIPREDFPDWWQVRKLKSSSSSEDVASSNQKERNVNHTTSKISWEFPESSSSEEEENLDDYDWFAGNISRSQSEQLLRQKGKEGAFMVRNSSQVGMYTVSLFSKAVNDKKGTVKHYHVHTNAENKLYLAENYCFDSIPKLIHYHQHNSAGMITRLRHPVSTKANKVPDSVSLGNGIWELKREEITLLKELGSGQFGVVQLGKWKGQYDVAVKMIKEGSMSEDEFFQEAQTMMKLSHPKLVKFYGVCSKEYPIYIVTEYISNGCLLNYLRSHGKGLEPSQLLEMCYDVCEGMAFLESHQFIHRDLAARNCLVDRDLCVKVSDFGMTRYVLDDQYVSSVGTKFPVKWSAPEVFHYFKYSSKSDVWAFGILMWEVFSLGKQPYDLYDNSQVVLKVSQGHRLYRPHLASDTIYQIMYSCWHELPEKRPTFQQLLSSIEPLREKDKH

[5] = molecular target: MRCKa (Homo sapiens, UniProt Q5VT25)
[6] = molecular target: T3, Erk7 (Homo sapiens, UniProt Q8TD08)
T3 sequence (Q8TD08 1-544): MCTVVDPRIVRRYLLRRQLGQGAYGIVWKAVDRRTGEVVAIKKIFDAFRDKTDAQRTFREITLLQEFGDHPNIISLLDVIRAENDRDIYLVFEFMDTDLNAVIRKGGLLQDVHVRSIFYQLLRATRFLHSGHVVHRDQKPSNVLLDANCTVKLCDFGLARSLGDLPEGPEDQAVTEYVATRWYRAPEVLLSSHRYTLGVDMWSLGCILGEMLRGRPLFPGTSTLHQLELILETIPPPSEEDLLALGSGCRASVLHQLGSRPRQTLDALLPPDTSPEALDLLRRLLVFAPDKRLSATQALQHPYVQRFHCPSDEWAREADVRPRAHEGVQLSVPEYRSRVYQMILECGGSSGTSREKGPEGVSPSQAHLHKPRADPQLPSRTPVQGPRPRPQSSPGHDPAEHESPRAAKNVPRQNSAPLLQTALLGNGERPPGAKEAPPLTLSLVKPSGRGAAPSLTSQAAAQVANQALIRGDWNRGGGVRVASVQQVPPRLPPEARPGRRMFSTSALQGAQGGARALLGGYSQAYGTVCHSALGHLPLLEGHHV

MRCKa, sequence (Q5VT25 whole entry): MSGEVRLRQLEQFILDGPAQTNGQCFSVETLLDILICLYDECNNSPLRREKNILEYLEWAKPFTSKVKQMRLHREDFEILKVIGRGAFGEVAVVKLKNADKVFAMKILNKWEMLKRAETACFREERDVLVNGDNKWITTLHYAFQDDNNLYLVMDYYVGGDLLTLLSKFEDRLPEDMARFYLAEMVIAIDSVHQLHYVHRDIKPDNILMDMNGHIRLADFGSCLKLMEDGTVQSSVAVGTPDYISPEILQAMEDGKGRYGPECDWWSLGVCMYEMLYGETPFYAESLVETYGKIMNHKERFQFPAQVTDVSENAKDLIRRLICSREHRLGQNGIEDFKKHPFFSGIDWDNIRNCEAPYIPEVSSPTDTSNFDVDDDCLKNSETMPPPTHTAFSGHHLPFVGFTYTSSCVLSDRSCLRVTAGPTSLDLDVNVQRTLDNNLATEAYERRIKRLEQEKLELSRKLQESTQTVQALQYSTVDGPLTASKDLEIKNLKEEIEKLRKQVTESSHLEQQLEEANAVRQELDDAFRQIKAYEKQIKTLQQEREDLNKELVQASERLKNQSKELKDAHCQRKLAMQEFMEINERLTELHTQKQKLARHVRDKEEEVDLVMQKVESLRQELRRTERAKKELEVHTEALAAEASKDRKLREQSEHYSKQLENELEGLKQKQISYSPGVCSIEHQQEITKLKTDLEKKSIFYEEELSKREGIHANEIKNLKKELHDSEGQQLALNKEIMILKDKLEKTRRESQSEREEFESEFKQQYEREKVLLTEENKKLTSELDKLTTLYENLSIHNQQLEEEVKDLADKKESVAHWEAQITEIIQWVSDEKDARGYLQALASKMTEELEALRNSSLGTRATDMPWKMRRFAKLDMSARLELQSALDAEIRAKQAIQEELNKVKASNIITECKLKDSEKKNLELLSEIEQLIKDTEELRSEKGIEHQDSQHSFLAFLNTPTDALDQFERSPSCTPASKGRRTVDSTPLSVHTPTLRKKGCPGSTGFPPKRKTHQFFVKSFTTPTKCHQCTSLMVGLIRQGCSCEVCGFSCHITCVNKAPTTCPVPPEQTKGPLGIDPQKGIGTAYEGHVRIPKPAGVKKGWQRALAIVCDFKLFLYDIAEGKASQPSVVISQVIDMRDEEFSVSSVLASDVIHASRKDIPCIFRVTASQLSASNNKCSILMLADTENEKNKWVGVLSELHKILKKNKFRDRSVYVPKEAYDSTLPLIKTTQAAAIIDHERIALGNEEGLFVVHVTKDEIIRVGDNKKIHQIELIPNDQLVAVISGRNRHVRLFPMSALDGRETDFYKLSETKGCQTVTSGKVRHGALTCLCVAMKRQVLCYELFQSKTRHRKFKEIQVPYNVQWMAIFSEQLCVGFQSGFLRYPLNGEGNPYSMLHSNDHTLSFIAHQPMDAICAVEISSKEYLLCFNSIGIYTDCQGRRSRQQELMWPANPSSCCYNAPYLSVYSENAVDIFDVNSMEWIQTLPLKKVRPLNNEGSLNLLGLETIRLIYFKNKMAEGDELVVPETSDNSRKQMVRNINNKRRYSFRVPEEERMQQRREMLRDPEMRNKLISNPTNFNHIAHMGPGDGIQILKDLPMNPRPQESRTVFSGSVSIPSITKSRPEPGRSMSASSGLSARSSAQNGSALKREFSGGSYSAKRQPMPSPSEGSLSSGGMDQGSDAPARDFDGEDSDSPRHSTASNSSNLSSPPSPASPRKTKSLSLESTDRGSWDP
CK2a1, sequence (P68400 whole entry): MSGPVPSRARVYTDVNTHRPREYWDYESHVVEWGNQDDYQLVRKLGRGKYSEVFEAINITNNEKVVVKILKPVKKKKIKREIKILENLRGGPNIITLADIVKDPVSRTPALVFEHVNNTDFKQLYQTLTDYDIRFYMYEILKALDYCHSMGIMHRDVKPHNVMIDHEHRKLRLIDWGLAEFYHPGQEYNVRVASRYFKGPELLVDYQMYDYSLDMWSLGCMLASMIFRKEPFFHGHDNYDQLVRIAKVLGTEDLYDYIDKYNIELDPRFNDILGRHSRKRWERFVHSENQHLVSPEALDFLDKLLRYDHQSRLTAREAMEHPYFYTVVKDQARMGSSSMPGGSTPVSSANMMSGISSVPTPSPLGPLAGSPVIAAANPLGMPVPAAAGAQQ
PCTAIRE1, sequence (Q00536 whole entry): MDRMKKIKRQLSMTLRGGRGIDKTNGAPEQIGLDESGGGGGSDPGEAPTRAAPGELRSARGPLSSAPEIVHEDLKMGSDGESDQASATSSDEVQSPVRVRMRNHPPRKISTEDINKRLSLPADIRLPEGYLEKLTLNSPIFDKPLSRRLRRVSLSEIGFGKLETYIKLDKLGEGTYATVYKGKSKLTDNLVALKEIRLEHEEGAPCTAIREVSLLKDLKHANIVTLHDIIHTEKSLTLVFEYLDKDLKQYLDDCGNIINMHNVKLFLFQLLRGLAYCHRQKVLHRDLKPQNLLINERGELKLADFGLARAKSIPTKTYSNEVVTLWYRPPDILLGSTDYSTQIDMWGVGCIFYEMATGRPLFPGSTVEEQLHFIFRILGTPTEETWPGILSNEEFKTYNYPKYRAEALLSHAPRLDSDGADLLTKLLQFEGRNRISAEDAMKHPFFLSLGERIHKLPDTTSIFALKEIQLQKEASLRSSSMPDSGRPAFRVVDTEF

ΔTm at 10 µM ([1]; read-out: dTm 8): 0.1 °C
ΔTm at 10 µM ([2]; read-out: dTm 8): 0.7 °C
ΔTm at 10 µM ([3]; read-out: dTm 8): 1.1 °C
ΔTm at 10 µM ([4]; read-out: dTm 8): 4 °C
ΔTm at 10 µM ([5]; read-out: dTm 8): 0 °C
SMILES: CNc1ncc2cc(-c3cc(Cl)ccc3Cl)c(=O)n(CCCCN)c2n1 [compound 8, 8-(4-Aminobutyl)-6-(2,5-dichlorophenyl)-2-(methylamino)pyrido[2,3-d]pyrimidin-7(8H)-one]
ΔTm at 10 µM ([6]; read-out: dTm 8): 0.3 °C

ΔTm at 10 µM ([1]; read-out: dTm 11): 0.1 °C
ΔTm at 10 µM ([2]; read-out: dTm 11): 0.9 °C
ΔTm at 10 µM ([3]; read-out: dTm 11): 1.1 °C
ΔTm at 10 µM ([4]; read-out: dTm 11): 4.2 °C
ΔTm at 10 µM ([5]; read-out: dTm 11): -0.2 °C
SMILES: CNc1ncc2cc(-c3cc(Br)ccc3Br)c(=O)n(CCCCN)c2n1 [compound 11, 8-(4-Aminobutyl)-6-(2,5-dibromophenyl)-2-(methylamino)pyrido[2,3-d]pyrimidin-7(8H)-one]
ΔTm at 10 µM ([6]; read-out: dTm 11): 0.3 °C

ΔTm at 10 µM ([1]; read-out: dTm 9): 0.1 °C
ΔTm at 10 µM ([2]; read-out: dTm 9): 0.2 °C
ΔTm at 10 µM ([3]; read-out: dTm 9): 0.1 °C
ΔTm at 10 µM ([4]; read-out: dTm 9): 3.2 °C
ΔTm at 10 µM ([5]; read-out: dTm 9): -0.5 °C
SMILES: CNc1ncc2cc(-c3cc(C(F)(F)F)ccc3Cl)c(=O)n(CCCCN)c2n1 [compound 9, 8-(4-Aminobutyl)-6-(2-chloro-5-(trifluoromethyl)phenyl)-2-(methylamino)pyrido[2,3-d]pyrimidin-7(8H)-one]
ΔTm at 10 µM ([6]; read-out: dTm 9): 0.1 °C

ΔTm at 10 µM ([1]; read-out: dTm 10): 0.1 °C
ΔTm at 10 µM ([2]; read-out: dTm 10): 0.6 °C
ΔTm at 10 µM ([3]; read-out: dTm 10): 1.3 °C
ΔTm at 10 µM ([4]; read-out: dTm 10): 3.9 °C
ΔTm at 10 µM ([5]; read-out: dTm 10): -0.2 °C
SMILES: CNc1ncc2cc(-c3cc(Cl)ccc3Br)c(=O)n(CCCCN)c2n1 [compound 10, 8-(4-Aminobutyl)-6-(2-bromo-5-chlorophenyl)-2-(methylamino)pyrido[2,3-d]pyrimidin-7(8H)-one]
ΔTm at 10 µM ([6]; read-out: dTm 10): 0.3 °C

ΔTm at 10 µM ([1]; read-out: dTm 12): -0.4 °C
ΔTm at 10 µM ([2]; read-out: dTm 12): 1.3 °C
ΔTm at 10 µM ([3]; read-out: dTm 12): -0.2 °C
ΔTm at 10 µM ([4]; read-out: dTm 12): 3.6 °C
ΔTm at 10 µM ([5]; read-out: dTm 12): -0.8 °C
SMILES: CNc1ncc2cc(-c3cc(F)c(-c4cccc(C)n4)cc3F)c(=O)n(CCCCN)c2n1 [compound 12, 8-(4-Aminobutyl)-6-(2,5-difluoro-4-(6-methylpyridin-2-yl)phenyl)-2-(methylamino)pyrido[2,3-d]pyrimidin-7(8H)-one]
ΔTm at 10 µM ([6]; read-out: dTm 12): -1.3 °C
